Experimental data reported in patent publication US8906925B2, “Pyrido[4,3-B]indoles containing rigid moieties” (Medivation Technologies, Inc., priority 2008, dated 2014).
Like-named read-outs stand apart in the source and are kept apart here.

Key:
histamine receptor H1 = histamine receptor H1 (Homo sapiens, UniProt P35367); experiment: Histamine H1 radioligand binding ([3H]Pyrilamine)
Procedure, shortened: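 Values are percent inhibition of specific [3H]pyrilamine (1.2 nM) binding with compounds at ≤1 μM (1% DMSO vehicle); 180 min incubation at 25 °C, pH 7.4 Tris buffer, on CHO-expressed human H1 receptor; 1 μM pyrilamine defined nonspecific binding, bound ligand counted after filtration.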

[1] = target: T1, human recombinant adrenergic α1D receptor (Homo sapiens, UniProt P25100); experiment: Adrenergic α1D radioligand binding ([3H]Prozosin); conditions: read-out: Inhibition of ligand binding, Adrenergic α1D
T1 construct: expressed in transfected cells; host or cells: human embryonic kidney (HEK-293) cells
T1 sequence (P25100 1-572): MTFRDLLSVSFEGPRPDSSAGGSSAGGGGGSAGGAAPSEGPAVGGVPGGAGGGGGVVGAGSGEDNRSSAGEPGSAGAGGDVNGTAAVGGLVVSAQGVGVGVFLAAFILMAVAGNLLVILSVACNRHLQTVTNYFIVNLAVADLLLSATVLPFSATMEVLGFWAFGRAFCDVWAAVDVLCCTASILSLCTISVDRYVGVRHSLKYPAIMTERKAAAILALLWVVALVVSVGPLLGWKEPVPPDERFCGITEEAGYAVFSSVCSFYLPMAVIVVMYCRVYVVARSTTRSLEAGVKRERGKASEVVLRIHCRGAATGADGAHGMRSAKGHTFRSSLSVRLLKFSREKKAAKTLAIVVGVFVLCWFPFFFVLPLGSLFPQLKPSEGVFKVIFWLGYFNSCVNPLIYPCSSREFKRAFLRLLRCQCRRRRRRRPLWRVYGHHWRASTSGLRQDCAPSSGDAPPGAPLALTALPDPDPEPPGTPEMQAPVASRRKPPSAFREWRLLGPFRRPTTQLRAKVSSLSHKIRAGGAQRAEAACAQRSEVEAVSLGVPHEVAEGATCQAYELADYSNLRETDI
Protocol: Compounds of invention were incubated with 0.6 nM [^3H]Prozosin for 60 min. at 25° C. Non-specific binding was estimated in the presence of 10 μM phentolamine. Receptor proteins were filtered and washed, the filters were then counted to determine [^3H]Prozosin specifically bound. Compounds were screened at 1 μM or lower, using 1% DMSO as vehicle. Biochemical assay results are presented as the percent inhibition of specific binding in Table 9.

[2] = target: human dopamine D2L receptor (Homo sapiens, UniProt P14416); experiment: Dopamine D2L radioligand binding ([3H]Spiperone); conditions: for inhibition at 1 µM: read-out: Inhibition of ligand binding, Dopamine D2L; for Inhibition of ligand binding, Dopamine D2L: 1 µM
Source text: Non-specific binding was estimated in the presence of […] Haloperidol. Receptor proteins were filtered and washed, the filters were then counted to determine [^3H]Spiperone specifically bound. […] Biochemical assay results are presented as the percent inhibition of specific binding in Table 9.

[3] = target: T2, human recombinant serotonin (5-Hydroxytryptamine) 5-HT2C receptor (Homo sapiens, UniProt P28335); experiment: Serotonin 5-HT2C radioligand binding ([3H]Mesulergine); conditions: compound at 1 μM; read-out: Inhibition of ligand binding, Serotonin 5-HT2C (percent inhibition of specific binding)
T2 construct: expressed in transfected cells; host or cells: Chinese hamster ovary (CHO-K1) cells
T2 sequence (P28335 33-458): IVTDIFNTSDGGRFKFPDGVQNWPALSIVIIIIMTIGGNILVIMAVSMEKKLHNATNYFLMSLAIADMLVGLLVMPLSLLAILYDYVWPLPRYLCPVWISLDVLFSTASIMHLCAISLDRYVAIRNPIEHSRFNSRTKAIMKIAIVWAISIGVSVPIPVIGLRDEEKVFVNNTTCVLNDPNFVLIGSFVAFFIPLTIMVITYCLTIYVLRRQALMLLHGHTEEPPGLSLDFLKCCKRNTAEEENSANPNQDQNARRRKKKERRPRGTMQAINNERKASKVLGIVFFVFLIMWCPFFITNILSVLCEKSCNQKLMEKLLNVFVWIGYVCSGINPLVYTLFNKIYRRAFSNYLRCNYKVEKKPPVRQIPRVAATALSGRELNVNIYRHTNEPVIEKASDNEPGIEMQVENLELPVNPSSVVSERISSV
Procedure, shortened: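 Compounds tested at 1 μM or lower (1% DMSO vehicle) for displacement of 1 nM [3H]Mesulergine over 60 min at 25° C. Specific binding determined by filtration counting, with 1 μM Mianserin defining non-specific binding; values are percent inhibition.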

[4] = target: T3, human recombinant serotonin (5-Hydroxytryptamine) 5-HT2A receptor (Homo sapiens, UniProt P28223); experiment: Serotonin 5-HT2A radioligand binding ([3H]Ketanserin); conditions: read-out: Inhibition of ligand binding, Serotonin 5-HT2A (percent inhibition of specific binding), compound at 1 μM
T3 construct: expressed in transfected cells; host or cells: Chinese hamster ovary (CHO-K1) cells
Protocol: Compounds of the invention were incubated with 0.5 nM [^3H]Ketanserin for 60 min. at 25° C. Non-specific binding was estimated in the presence of 1 μM Mianserin. Receptor proteins were filtered and washed, the filters were then counted to determine [^3H]Ketanserin specifically bound.

[5] = read-out: Histamine Binding (1 μM) H1, percent inhibition of specific binding, 1 μM
[6] = percent inhibition of specific binding, compound at 1 μM

histamine receptor H1, sequence (P35367 whole entry): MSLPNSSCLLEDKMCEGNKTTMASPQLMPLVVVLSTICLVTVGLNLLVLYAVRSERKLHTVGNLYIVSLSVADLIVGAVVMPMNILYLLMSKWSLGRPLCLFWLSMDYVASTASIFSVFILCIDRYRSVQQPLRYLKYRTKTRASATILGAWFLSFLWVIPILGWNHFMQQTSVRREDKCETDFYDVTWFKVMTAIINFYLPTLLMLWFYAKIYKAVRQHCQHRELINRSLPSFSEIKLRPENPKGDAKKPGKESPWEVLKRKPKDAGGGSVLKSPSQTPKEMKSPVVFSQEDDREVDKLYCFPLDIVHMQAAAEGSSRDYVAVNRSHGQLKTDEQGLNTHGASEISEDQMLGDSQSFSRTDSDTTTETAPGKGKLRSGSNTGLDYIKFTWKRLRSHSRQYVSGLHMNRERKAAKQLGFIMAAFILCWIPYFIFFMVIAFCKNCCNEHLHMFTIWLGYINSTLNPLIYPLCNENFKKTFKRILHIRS
human dopamine D2L receptor, sequence (P14416 whole entry): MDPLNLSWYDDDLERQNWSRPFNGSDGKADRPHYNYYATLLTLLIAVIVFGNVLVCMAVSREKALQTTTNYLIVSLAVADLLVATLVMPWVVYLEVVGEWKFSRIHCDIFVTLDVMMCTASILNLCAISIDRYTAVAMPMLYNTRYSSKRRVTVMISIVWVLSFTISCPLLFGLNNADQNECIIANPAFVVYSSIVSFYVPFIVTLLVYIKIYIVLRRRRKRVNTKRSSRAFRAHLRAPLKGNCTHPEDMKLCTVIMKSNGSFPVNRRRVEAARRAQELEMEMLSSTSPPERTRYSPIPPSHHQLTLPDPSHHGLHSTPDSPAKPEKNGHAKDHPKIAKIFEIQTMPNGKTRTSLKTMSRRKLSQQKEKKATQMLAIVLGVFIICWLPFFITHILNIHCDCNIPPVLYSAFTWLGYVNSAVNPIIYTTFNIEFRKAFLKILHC
T3 sequence (P28223 whole entry): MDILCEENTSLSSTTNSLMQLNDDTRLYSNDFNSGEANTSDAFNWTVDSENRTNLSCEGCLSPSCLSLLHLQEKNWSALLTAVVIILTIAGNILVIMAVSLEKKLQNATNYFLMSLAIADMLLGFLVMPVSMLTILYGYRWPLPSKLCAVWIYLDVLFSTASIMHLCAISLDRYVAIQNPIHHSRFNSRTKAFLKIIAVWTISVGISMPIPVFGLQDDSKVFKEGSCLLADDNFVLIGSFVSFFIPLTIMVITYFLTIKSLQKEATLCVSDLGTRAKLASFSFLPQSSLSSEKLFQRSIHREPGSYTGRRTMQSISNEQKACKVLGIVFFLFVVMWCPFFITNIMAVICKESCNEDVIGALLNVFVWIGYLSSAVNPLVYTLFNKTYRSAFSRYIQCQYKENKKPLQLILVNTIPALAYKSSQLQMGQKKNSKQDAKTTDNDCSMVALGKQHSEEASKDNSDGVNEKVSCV

## Cc1ccc2[nH]c3c(c2c1)CN(C)CC3 [Compound 3, 2,8-Dimethyl-2,3,4,5-tetrahydro-1H-pyrido[4,3-b]indole]
Histamine receptor H1; read-out: Histamine Binding (1 μM) H1, percent inhibition of specific binding
  inhibition at 1 µM: 30%
[1]
  inhibition at 1 µM: 42%
[2]
  inhibition at 1 µM: 14%
[3]
  inhibition at 1 µM: 96%

## Cc1ccc(C(C)(O)Cn2c3c(c4cc(Cl)ccc42)CN(C)CC3)cn1 (centres unmarked) [Compound 47, 1-(8-chloro-1,2,3,4-tetrahydro-2-methylpyrido[4,3-b]indol-5-yl)-2-(6-methylpyridin-3-yl)propan-2-ol]
Histamine receptor H1; [5]
  inhibition at 1 µM: 33%
[1]; [6]
  inhibition at 1 µM: 82%
[2]; [6]
  inhibition at 1 µM: 7%
[4]
  inhibition at 1 µM: 84%
[3]
  inhibition at 1 µM: 81%

## Cc1ccc2c(c1)c1c(n2CC(O)c2ccc(C)nc2)CCN(C)C1 (centres unmarked) [Compound 48, 2-(2,8-dimethyl-3,4-dihydro-1H-pyrido[4,3-b]indol-5(2H)-yl)-1-(6-methylpyridin-3-yl)ethanol]
Histamine receptor H1; [5]
  inhibition at 1 µM: 93%
[1]; [6]
  inhibition at 1 µM: 45%
[2]; [6]
  inhibition at 1 µM: 8%
[4]
  inhibition at 1 µM: 73%
[3]
  inhibition at 1 µM: 67%

## Cc1ccc2c(c1)c1c(n2CC(C)(O)c2ccc(C)nc2)CCN(C)C1 (centres unmarked) [Compound 52, 1-(1,2,3,4-tetrahydro-2,8-dimethylpyrido[4,3-b]indol-5-yl)-2-(6-methylpyridin-3-yl)propan-2-ol]
Histamine receptor H1; [5]
  inhibition at 1 µM: 46%
[1]; [6]
  inhibition at 1 µM: 39%
[2]; [6]
  inhibition at 1 µM: 12%
[4]
  inhibition at 1 µM: 83%
[3]
  inhibition at 1 µM: 87%

## Cc1ccc2c(c1)c1c(n2CC(O)c2cccnc2)CCN(C)C1 (centres unmarked) [Compound 54, 2-(1,2,3,4-tetrahydro-2,8-dimethylpyrido[4,3-b]indol-5-yl)-1-(pyridin-3-yl)ethanol]
Histamine receptor H1; [5]
  inhibition at 1 µM: 68%
[1]; [6]
  inhibition at 1 µM: 15%
[2]; [6]
  inhibition at 1 µM: -4%
[4]
  inhibition at 1 µM: 42%
[3]
  inhibition at 1 µM: 22%

## Cc1ccc2c(c1)c1c(n2CC(C)(O)c2ccc(F)cc2)CCN(C)C1 (centres unmarked) [Compound 55, 2-(4-fluorophenyl)-1-(1,2,3,4-tetrahydro-2,8-dimethylpyrido[4,3-b]indol-5-yl)propan-2-ol]
Histamine receptor H1; [5]
  inhibition at 1 µM: 91%
[1]; [6]
  inhibition at 1 µM: 64%
[2]; [6]
  inhibition at 1 µM: 34%
[4]
  inhibition at 1 µM: 100%
[3]
  inhibition at 1 µM: 93%

## CN1CCc2c(c3cc(Cl)ccc3n2CC(O)c2cccnc2)C1 (centres unmarked) [Compound 56, 2-(8-chloro-1,2,3,4-tetrahydro-2-methylpyrido[4,3-b]indol-5-yl)-1-(pyridin-3-yl)ethanol]
Histamine receptor H1; [5]
  inhibition at 1 µM: 90%
[1]; [6]
  inhibition at 1 µM: 43%
[2]; [6]
  inhibition at 1 µM: 4%
[4]
  inhibition at 1 µM: 68%
[3]
  inhibition at 1 µM: 38%

## COc1ccc(C(C)(O)Cn2c3c(c4cc(Cl)ccc42)CN(C)CC3)cc1 (centres unmarked) [Compound 57, 1-(8-chloro-1,2,3,4-tetrahydro-2-methylpyrido[4,3-b]indol-5-yl)-2-(4-methoxyphenyl)propan-2-ol]
Histamine receptor H1; [5]
  inhibition at 1 µM: 41%
[1]; [6]
  inhibition at 1 µM: 84%
[2]; [6]
  inhibition at 1 µM: 22%
[4]
  inhibition at 1 µM: 95%
[3]
  inhibition at 1 µM: 86%

## COc1ccc(C(C)(O)Cn2c3c(c4cc(Cl)ccc42)CN(C)CC3)cc1F (centres unmarked) [Compound 59, 1-(8-chloro-1,2,3,4-tetrahydro-2-methylpyrido[4,3-b]indol-5-yl)-2-(3-fluoro-4-methoxyphenyl)propan-2-ol]
Histamine receptor H1; [5]
  inhibition at 1 µM: 63%
[1]; [6]
  inhibition at 1 µM: 81%
[2]; [6]
  inhibition at 1 µM: 17%
[4]
  inhibition at 1 µM: 96%
[3]
  inhibition at 1 µM: 99%

## Cc1ccc2c(c1)c1c(n2CC(C)(O)c2cccnc2)CCN(C)C1 (centres unmarked) [Compound 60, 1-(1,2,3,4-tetrahydro-2,8-dimethylpyrido[4,3-b]indol-5-yl)-2-(pyridin-3-yl)propan-2-ol]
Histamine receptor H1; [5]
  inhibition at 1 µM: 52%
[1]; [6]
  inhibition at 1 µM: 33%
[2]; [6]
  inhibition at 1 µM: 6%
[4]
  inhibition at 1 µM: 78%
[3]
  inhibition at 1 µM: 86%

## CN1CCc2c(c3cc(Cl)ccc3n2CC(C)(O)c2cccnc2)C1 (centres unmarked) [Compound 61, 1-(8-chloro-1,2,3,4-tetrahydro-2-methylpyrido[4,3-b]indol-5-yl)-2-(pyridin-3-yl)propan-2-ol]
Histamine receptor H1; [5]
  inhibition at 1 µM: 52%
[1]; [6]
  inhibition at 1 µM: 87%
[2]; [6]
  inhibition at 1 µM: 19%
[4]
  inhibition at 1 µM: 77%
[3]
  inhibition at 1 µM: 90%

## Cc1ccc2c(c1)c1c(n2CC(C)(O)c2ccncc2)CCN(C)C1 (centres unmarked) [Compound 62, 1-(1,2,3,4-tetrahydro-2,8-dimethylpyrido[4,3-b]indol-5-yl)-2-(pyridin-4-yl)propan-2-ol]
Histamine receptor H1; [5]
  inhibition at 1 µM: 38%
[1]; [6]
  inhibition at 1 µM: 82%
[2]; [6]
  inhibition at 1 µM: 7%
[4]
  inhibition at 1 µM: 88%
[3]
  inhibition at 1 µM: 89%

## CN1CCc2c(c3cc(Cl)ccc3n2CC(C)(O)c2ccncc2)C1 (centres unmarked) [Compound 63, 1-(8-chloro-1,2,3,4-tetrahydro-2-methylpyrido[4,3-b]indol-5-yl)-2-(pyridin-4-yl)propan-2-ol]
Histamine receptor H1; [5]
  inhibition at 1 µM: 46%
[1]; [6]
  inhibition at 1 µM: 84%
[2]; [6]
  inhibition at 1 µM: 17%
[4]
  inhibition at 1 µM: 95%
[3]
  inhibition at 1 µM: 95%

## C/C(=C\n1c2c(c3cc(Cl)ccc31)CN(C)CC2)c1ccc(C)nc1 [Compound 89, (E)-8-chloro-2,3,4,5-tetrahydro-2-methyl-5-(2-(6-methylpyridin-3-yl)prop-1-enyl)-1H-pyrido[4,3-b]indole]
Histamine receptor H1; [5]
  inhibition at 1 µM: 43%
[1]; [6]
  inhibition at 1 µM: 87%
[2]; [6]
  inhibition at 1 µM: 68%
[4]
  inhibition at 1 µM: 101%
[3]
  inhibition at 1 µM: 98%

## COc1ccc(/C(C)=C/n2c3c(c4cc(Cl)ccc42)CN(C)CC3)cc1 [Compound 92, (E)-8-chloro-2,3,4,5-tetrahydro-5-(2-(4-methoxyphenyl)prop-1-enyl)-2-methyl-1H-pyrido[4,3-b]indole]
Histamine receptor H1; [5]
  inhibition at 1 µM: 44%
[1]; [6]
  inhibition at 1 µM: 99%
[2]; [6]
  Inhibition of ligand binding, Dopamine D2L: 97%
  inhibition at 1 µM: 83%
[4]
  inhibition at 1 µM: 100%
[3]
  inhibition at 1 µM: 91%

## COc1ccc(/C(C)=C/n2c3c(c4cc(Cl)ccc42)CN(C)CC3)cc1F [Compound 93, (E)-8-chloro-5-(2-(3-fluoro-4-methoxyphenyl)prop-1-enyl)-2,3,4,5-tetrahydro-2-methyl-1H-pyrido[4,3-b]indole]
Histamine receptor H1; [5]
  inhibition at 1 µM: 39%
[1]; [6]
  inhibition at 1 µM: 96%
[2]; [6]
  Inhibition of ligand binding, Dopamine D2L: 97%
  inhibition at 1 µM: 85%
[4]
  inhibition at 1 µM: 100%
[3]
  inhibition at 1 µM: 99%

## Cc1ccc(/C=C/Cn2c3c(c4cc(Cl)ccc42)CN(C)CC3)cn1 [Compound 125, 8-chloro-2,3,4,5-tetrahydro-2-methyl-5-((E)-3-(6-methylpyridin-3-yl)allyl)-1H-pyrido[4,3-b]indole]
Histamine receptor H1; [5]
  inhibition at 1 µM: 96%
[1]; [6]
  inhibition at 1 µM: 51%
[2]; [6]
  inhibition at 1 µM: 20%
[4]
  inhibition at 1 µM: 97%
[3]
  inhibition at 1 µM: 77%
